Our source for the Kd and GI50 values is patent US20250136619A1, “HETEROBIFUNCTIONAL COMPOUNDS AND THEIR USE IN TREATING DISEASE” (HALDA THERAPEUTICS OPCO, INC., priority 2021, published 2025).

Molecules are shown by their SMILES. Where two headings read alike, the source gives them in different places.

The target of one assay is CDK9 (Homo sapiens (Human), UniProt P50750). The assay is described as follows: KdELECT assay for binding affinity to CDK9. The procedure:
(§1) Compounds were tested using a KdELECT. Kinase-tagged T7 phage strains were prepared in an E. coli host derived from the BL21 strain. E. coli were grown to log-phase and infected with T7 phage and incubated with shaking at 32° C. until lysis. The lysates were centrifuged and filtered to remove cell debris. The remaining kinases were produced in HEK-293 cells and subsequently tagged with DNA for qPCR detection. Streptavidin-coated magnetic beads were treated with biotinylated small molecule ligands for 30 minutes at room temperature to generate affinity resins for kinase assays. The liganded beads were blocked with excess biotin and washed with blocking buffer (SeaBlock (Pierce), 1% BSA, 0.05% Tween 20, 1 mM DTT) to remove unbound ligand and to reduce non-specific binding. Binding reactions were assembled by combining kinases, liganded affinity beads, and test compounds in 1×binding buffer (20% SeaBlock, 0.17×PBS, 0.05% Tween 20, 6 mM DTT). Test compounds were prepared as 111X stocks in 100% DMSO. Kd values were determined using an 11-point 3-fold compound dilution series with three DMSO control points. All compounds for Kd measurements are distributed by acoustic transfer (non-contact dispensing) in 100% DMSO. The compounds were then diluted directly into the assays such that the final concentration of DMSO was 0.9%. All reactions performed in polypropylene 384-well plate. Each was a final volume of 0.02 mL. The assay plates were incubated at room temperature with shaking for 1 hour and the affinity beads were washed with wash buffer (1×PBS, 0.05% Tween 20). The beads were then re-suspended in elution buffer (1×PBS, 0.05% Tween 20, 0.5 μM nonbiotinylated affinity ligand) and incubated at room temperature with shaking for 30 minutes. The kinase concentration in the eluates was measured by qPCR.

Another assay concerns the target BTK (Homo sapiens (Human), UniProt Q06187). The assay is described as follows: KdELECT assay for binding affinity to BTK. The procedure: as §1, with “KdELECT assay.” for “KdELECT.”, “1× binding” for “1×binding”
The test system of another assay is HeLa cells. The assay is described as follows: Cellular growth inhibition assay (CellTiter-Glo), HeLa cells. Conditions: read-out: CTG HELA GI50. Type of assay: cell-based. In outline:
(§2)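 HeLa or HEK293 cells in DMEM with 10% FBS exposed to titrated compound for three days at 37 °C, 5% CO2, 24 h after seeding. Viability by CellTiter-Glo 2.0 luminescence, normalized to DMSO Day 0 and Day 3 readings; four-parameter fit gives GI50.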
Background: Cellular ATP, detected with luciferase, serves as a proxy for viable cell number.

The next assay relates to HEK293 cells. Kind of assay: Cellular growth inhibition assay (CellTiter-Glo), HEK293 cells. The format is cell-based. The conditions noted are these: read-out: CTG HEK293 GI50. In outline: as §2
Where [1] appears, read: Homo sapiens, 72 h, HeLa cells, three days of compound treatment, CellTiter-Glo 2.0.
The mark [2] stands for this setting: Homo sapiens, 72 h, HEK293 cells, three days of compound treatment, CellTiter-Glo 2.0.

CDK9, sequence (P50750 whole entry): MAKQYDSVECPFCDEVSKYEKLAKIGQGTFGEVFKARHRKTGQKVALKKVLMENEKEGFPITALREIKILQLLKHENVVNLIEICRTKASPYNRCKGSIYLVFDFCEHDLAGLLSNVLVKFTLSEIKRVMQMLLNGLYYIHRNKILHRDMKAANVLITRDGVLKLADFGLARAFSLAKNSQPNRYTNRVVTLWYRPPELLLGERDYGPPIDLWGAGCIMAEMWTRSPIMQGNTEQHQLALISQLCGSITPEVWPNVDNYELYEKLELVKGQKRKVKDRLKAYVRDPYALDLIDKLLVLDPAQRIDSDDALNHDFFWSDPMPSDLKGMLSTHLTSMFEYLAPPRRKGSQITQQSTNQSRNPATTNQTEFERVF
BTK, sequence (Q06187 whole entry): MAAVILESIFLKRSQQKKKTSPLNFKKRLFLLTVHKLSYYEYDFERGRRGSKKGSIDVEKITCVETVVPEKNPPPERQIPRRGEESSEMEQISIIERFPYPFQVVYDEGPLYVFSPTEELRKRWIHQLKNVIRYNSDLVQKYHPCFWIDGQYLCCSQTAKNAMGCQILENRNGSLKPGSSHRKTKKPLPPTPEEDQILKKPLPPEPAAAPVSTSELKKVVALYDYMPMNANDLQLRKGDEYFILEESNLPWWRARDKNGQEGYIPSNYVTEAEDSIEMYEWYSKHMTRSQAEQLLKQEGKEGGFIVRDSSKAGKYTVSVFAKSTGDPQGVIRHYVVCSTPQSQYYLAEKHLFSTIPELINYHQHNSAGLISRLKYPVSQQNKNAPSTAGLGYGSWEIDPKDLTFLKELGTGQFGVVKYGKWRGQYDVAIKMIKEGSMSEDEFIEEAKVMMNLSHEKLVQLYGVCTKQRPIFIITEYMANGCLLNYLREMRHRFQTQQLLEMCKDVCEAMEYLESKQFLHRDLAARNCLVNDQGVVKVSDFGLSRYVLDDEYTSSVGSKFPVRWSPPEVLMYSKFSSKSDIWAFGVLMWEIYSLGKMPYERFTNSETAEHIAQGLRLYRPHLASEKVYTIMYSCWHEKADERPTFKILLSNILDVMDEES

`CCc1cnn2c(NCc3ccc(OCCOCCOCCOCCOCCOC/C=C/C(=O)N4CCC[C@@H](n5nc(-c6ccc(Oc7ccccc7)cc6)c6c(N)ncnc65)C4)nc3)cc(N3CCCC[C@H]3CCO)nc12` [Compound I-42]: the values for the equilibrium dissociation constant (Kd) on CDK9 and at BTK were 50 to 500 nM and less than 50 nM, respectively. Moreover, the GI50 in the assay on HeLa cells (setting [1]) is less than 500 nM; in the assay with HEK293 cells (setting [2]), 500 to 1500 nM.
For the molecule `CN(C/C=C/C(=O)N1CCC[C@@H](n2nc(-c3ccc(Oc4ccccc4)cc3)c3c(N)ncnc32)C1)CCOCCOCCOCCOCCNS(=O)(=O)c1ccc(Nc2ncc(Br)c(Nc3cccc(F)c3C(N)=O)n2)cc1` [Compound I-64, 2-[[2-[4-[2-[2-[2-[2-[2-[[(E)-4-[(3R)-3-[4-amino-3-(4-phenoxyphenyl)pyrazolo[3,4-d]pyrimidin-1-yl]-1-piperidyl]-4-oxo-but-2-enyl]-methyl-amino]ethoxy]ethoxy]ethoxy]ethoxy]ethylsulfamoyl]anilino]-5-bromo-pyrimidin-4-yl]amino]-6-fluoro-benzamide], the equilibrium dissociation constant (Kd) at CDK9 was 500 to 2500 nM; at BTK, less than 50 nM. In addition, the values for the GI50 in the assay on HeLa cells (setting [1]) and with HEK293 cells (setting [2]) were 1500 to 5000 nM and more than 5000 nM, respectively.
Consider `CCc1cnn2c(NCc3ccc(CCOCCOCCN(C)C/C=C/C(=O)N4CCC[C@@H](n5nc(-c6ccc(Oc7ccccc7)cc6)c6c(N)ncnc65)C4)nc3)cc(N3CCCC[C@H]3CCO)nc12` [Compound I-67, (E)-1-((R)-3-(4-amino-3-(4-phenoxyphenyl)-1H-pyrazolo[3,4-d]pyrimidin-1-yl)piperidin-1-yl)-4-((2-(2-(2-(5-(((3-ethyl-5-((S)-2-(2-hydroxyethyl)piperidin-1-yl)pyrazolo[1,5-a]pyrimidin-7-yl)amino)methyl)pyridin-2-yl)ethoxy)ethoxy)ethyl)(methyl)amino)but-2-en-1-one], for which the Kd at CDK9 and at BTK was less than 50 nM in each case.
On to `NC(=O)c1c(F)cccc1Nc1nc(Nc2ccc(S(=O)(=O)NCCOCCOCCOC3CCN(C/C=C/C(=O)N4CCC[C@@H](n5nc(-c6ccc(Oc7ccccc7)cc6)c6c(N)ncnc65)C4)CC3)cc2)ncc1Br` [Compound I-68, 2-[[2-[4-[2-[2-[2-[[1-[(E)-4-[(3R)-3-[4-amino-3-(4-phenoxyphenyl)pyrazolo[3,4-d]pyrimidin-1-yl]-1-piperidyl]-4-oxo-but-2-enyl]-4-piperidyl]oxy]ethoxy]ethoxy]ethylsulfamoyl]anilino]-5-bromo-pyrimidin-4-yl]amino]-6-fluoro-benzamide], for which the dissociation constant (Kd) on CDK9 was 500 to 2500 nM; at BTK, less than 50 nM.
`CCc1cnn2c(NCc3ccc(OCCCN4CCN(CCCN(C)C/C=C/C(=O)N5CCC[C@@H](n6nc(-c7ccc(Oc8ccccc8)cc7)c7c(N)ncnc76)C5)CC4)nc3)cc(N3CCCC[C@H]3CCO)nc12` [Compound I-69]: the dissociation constant (Kd) on CDK9 and at BTK was less than 50 nM throughout. In addition, the 50% growth inhibitory concentration (GI50) with HeLa cells (HeLa cells, three days of compound treatment, CellTiter-Glo 2.0) is less than 500 nM; with HEK293 cells (HEK293 cells, three days of compound treatment, CellTiter-Glo 2.0) it was less than 500 nM.
On to `CCc1cnn2c(NCc3ccc(OCCOCCOCCOC4CCN(C/C=C/C(=O)N5CCC[C@@H](n6nc(-c7ccc(Oc8ccccc8)cc7)c7c(N)ncnc76)C5)CC4)nc3)cc(N3CCCC[C@H]3CCO)nc12` [Compound I-70, (E)-1-((R)-3-(4-amino-3-(4-phenoxyphenyl)-1H-pyrazolo[3,4-d]pyrimidin-1-yl)piperidin-1-yl)-4-(4-(2-(2-(2-((5-(((3-ethyl-5-((S)-2-(2-hydroxyethyl)piperidin-1-yl)pyrazolo[1,5-a]pyrimidin-7-yl)amino)methyl)pyridin-2-yl)oxy)ethoxy)ethoxy)ethoxy)piperidin-1-yl) but-2-en-1-one], for which the dissociation constant Kd on CDK9 was 50 to 500 nM; on BTK it was less than 50 nM. Also, the concentration for 50% growth inhibition (GI50) is less than 500 nM in the assay with HeLa cells (setting [1]) and 500 to 1500 nM in the assay with HEK293 cells (setting [2]).
Regarding `CCc1cnn2c(NCc3ccc(OCCOCCOCCOCCOCCN(C)C/C=C/C(=O)N(C)CCOc4c(N)ncnc4-c4cc(F)cc(NC(=O)c5ccc(C6CC6)cc5F)c4C)nc3)cc(N3CCCC[C@H]3CCO)nc12` [Compound I-77], the Kd fell in the range of 50 to 500 nM at CDK9 and 500 to 2500 nM at BTK.
As for `Cc1c(NC(=O)c2ccc(C3CC3)cc2F)cc(F)cc1-c1ncnc(N)c1OCCN(C)C(=O)/C=C/CN1CCC(OCCOCCOCCNS(=O)(=O)c2ccc(Nc3ncc(Br)c(Nc4cccc(F)c4C(N)=O)n3)cc2)CC1` [Compound I-80, 2-[[2-[4-[2-[2-[2-[[1-[(E)-4-[2-[4-amino-6-[3-[(4-cyclopropyl-2-fluoro-benzoyl)amino]-5-fluoro-2-methyl-phenyl]pyrimidin-5-yl]oxyethyl-methyl-amino]-4-oxo-but-2-enyl]-4-piperidyl]oxy]ethoxy]ethoxy]ethylsulfamoyl]anilino]-5-bromo-pyrimidin-4-yl]amino]-6-fluoro-benzamide], the dissociation constant (Kd) on CDK9 is 50 to 500 nM; at BTK it was less than 50 nM.
Turning to `CCc1cnn2c(NCc3ccc(OCC(=O)N4CC(=O)N(c5cc(C#N)ccn5)[C@H](C(=O)N(c5cc(F)cc(F)c5)[C@H](C(=O)NC5CC(F)(F)C5)c5ccccc5Cl)C4)nc3)cc(N3CCCC[C@H]3CCO)nc12` [Compound I-96, (2S)—N-[(1S)-1-(2-chlorophenyl)-2-[(3,3-difluorocyclobutyl)amino]-2-oxo-ethyl]-1-(4-cyano-2-pyridyl)-N-(3,5-difluorophenyl)-4-[2-[[5-[[[3-ethyl-5-[(2S)-2-(2-hydroxyethyl)-1-piperidyl]pyrazolo[1,5-a]pyrimidin-7-yl]amino]methyl]-2-pyridyl]oxy]acetyl]-6-oxo-piperazine-2-carboxamide], the Kd at CDK9 lay in the range of 50 to 500 nM. Besides, the 50% growth inhibitory concentration (GI50) in the assay with HeLa cells (setting [1]) and in the assay with HEK293 cells (setting [2]) was less than 500 nM in each case.
Take `CCc1cnn2c(NCc3ccc(OCCOCCOCC(=O)N4CC(=O)N(c5cc(C#N)ccn5)[C@H](C(=O)N(c5cc(F)cc(F)c5)[C@H](C(=O)NC5CC(F)(F)C5)c5ccccc5Cl)C4)nc3)cc(N3CCCC[C@H]3CCO)nc12` [Compound I-97, (2S)—N-[(1S)-1-(2-chlorophenyl)-2-[(3,3-difluorocyclobutyl)amino]-2-oxo-ethyl]-1-(4-cyano-2-pyridyl)-N-(3,5-difluorophenyl)-4-[2-[2-[2-[[5-[[[3-ethyl-5-[(2S)-2-(2-hydroxyethyl)-1-piperidyl]pyrazolo[1,5-a]pyrimidin-7-yl]amino]methyl]-2-pyridyl]oxy]ethoxy]ethoxy]acetyl]-6-oxo-piperazine-2-carboxamide]: the Kd on CDK9 fell in the range of 50 to 500 nM. Further, the GI50 in the assay with HeLa cells (Homo sapiens, HeLa, 72 h) is less than 500 nM; with HEK293 cells (Homo sapiens, HEK293, 72 h), less than 500 nM.
At CDK9, `CCc1cnn2c(NCc3ccc(OCCOCCOCCOCCOCC(=O)N4CC(=O)N(c5cc(C#N)ccn5)[C@H](C(=O)N(c5cc(F)cc(F)c5)C(C(=O)NC5CC(F)(F)C5)c5ccccc5Cl)C4)nc3)cc(N3CCCC[C@H]3CCO)nc12` (stereo partly drawn) [Compound I-98, (2S)—N-[1-(2-chlorophenyl)-2-[(3,3-difluorocyclobutyl)amino]-2-oxo-ethyl]-1-(4-cyano-2-pyridyl)-N-(3,5-difluorophenyl)-4-[2-[2-[2-[2-[2-[[5-[[[3-ethyl-5-[(2S)-2-(2-hydroxyethyl)-1-piperidyl]pyrazolo[1,5-a]pyrimidin-7-yl]amino]methyl]-2-pyridyl]oxy]ethoxy]ethoxy]ethoxy]ethoxy]acetyl]-6-oxo-piperazine-2-carboxamide] registered a dissociation constant Kd of 50 to 500 nM. Further, the 50% growth inhibitory concentration (GI50) in the assay on HeLa cells (setting [1]) and with HEK293 cells (setting [2]) was less than 500 nM in each case.

For orientation: Kd means the free concentration of one partner at which half of the binding sites on the other are occupied at equilibrium, for simple one-to-one binding. The GI50 is the concentration at which growth is held to half of that of the control.
